From patent US20080155704A1, “Methods and Compositions for Determining in vivo Activity of BiP” (King's College London, priority 2006, published 2008)
Like-named read-outs stand apart in the source and are kept apart here.

Columns and labels:
[1] = tested on: collagen-induced arthritis (CIA); conditions: administration of BiP to mice, literature reference, cited from earlier work
allogeneic T cells = experiment: Allogeneic proliferative response to early BiP treated DC (tritiated thymidine uptake); assay type: cell-based, human; conditions: DC differentiated with BiP 20 μg/ml
Protocol: Allogeneic responses by T cells in culture with irradiated (3,000 rads) early DC (eDC), after only 3d in culture with GM-CSF and IL-4 in the presence or absence of BiP (20 μg/ml) at a ratio of 10:1 PBMC:DC (105:10^4 cells/well). The results are shown as an allogeneic proliferative response (A) following addition of neutralizing anti-IL-10 ( 1/100 dilution) antibody and (B) the pre-treatment (2 h) of monocytes (MO) with p38 inhibitor, SB203580 (SB)(10 μM) or the ERK1/2 inhibitor, PD 98059 (PD)(10 μM), prior to the addition of GM-CSF and IL-4 to the cultures. The proliferation of PBMC to early DC following (C) the addition of BiP 24 h post addition of GM-CSF and IL-4. Proliferation was measured by uptake of tritiated thymidine and recorded as counts per minute (cpm). ELISA was used to detect IL-10 (D) in the culture supernatants and (E) by 7d cultured iDC/iDC(BiP) and fully matured mDC/mDC(BiP) differentiated as described in following 7d culture in GM-CSF and IL-4 with LPS (500 ng/ml) added for the final 2d.
To neutralize IL-10 within the cultures anti-IL-10 antibody (ATCC, Rockville, USA) was added at day 0 (5 μg/ml) to GM-CSF and IL-4 treated cultures in the presence and absence of BiP (20 μg/ml). Two specific cell-permeable inhibitors of the MAPK intracellular signalling pathways were used. SB203580 (SB)(10 μM)((Calbiochem, Darmstadt, Germany) inhibits p38 MAPK, and PD98059 (PD) (10 μM)(Calbiochem), an inhibitor of MAPK extracellular signal regulated kinase (ERK), were tested. MO were pre-treated with the inhibitors for 2 h before adding GM-CSF and IL-4 in the presence or absence of BiP.

[2] = tested on: splenocytes and lymph node cells; experiment: Intravenous injection of BiP into DBA mice, splenocytes and lymph node cells analysed; assay type: in vivo, mouse
Protocol: The biomarkers were investigated in two situations: 1) when 50.10^6 human peripheral blood mononuclear cells were injected intraperitoneally, with or without BiP (100 μg), into a mouse and the cells were harvested from the peritoneum 11 days later; or (2) BiP (200 μg) was injected intravenously into a mouse and the spleens and lymph nodes removed 11 days later.
Mice were sacrificed at the end of the experiment and the spleens and lymph nodes removed. The spleens and lymph nodes were then gently pushed through a fine mesh to produce a single cell suspension. The cells were then either set up in culture or stained as for human cells following the protocol below.
IF staining of mouse cells was as described for human cells above.
Mice were given a single dose of BiP and left for 11 days before they were sacrificed and their spleens and lymph nodes removed for analysis. The splenocytes and lymph node cells were pooled and used in immunofluorescence and flow cytometry studies. They were also set up in a simple recall antigen proliferation study to check that BiP had been successfully administered at time-point zero.
Cells were examined for: CD3, CD4, CD8, CD25, CD122, CCR4, intracellular CTLA-4 and cells actively producing IL-10 and interferon (IFN)γ.
Thus reduction of IFN (decreased IFN production) is an excellent marker of BiP function in vivo.

[3] = BiP 200 μg/mouse i.v., 11 days, n=3

In the case of “BiP: 78 kD endoplasmic reticulum chaperone protein as disclosed in WO 00/21995; recombinant human protein”, the “effect on collagen-induced arthritis” value [1] is listed as “prevented or treated ongoing collagen-induced arthritis”, the “effect on collagen-induced arthritis” value ([1]; listed as rhuBiP) is listed as “prevented the induction of experimental arthritis” and the “proliferation of allogeneic T cells stimulated by iDC(BiP) or mDC(BiP)” value (allogeneic T cells) is listed as “significantly reduced proliferation”. For the same substance, the “intracellular CTLA-4” value ([2]; BiP 200 μg/mouse i.v., 11 days) was “Increased intracellular CTLA-4”, the IL-10 producing cells [2, 3] was 6.1±1.3% and the “cells producing IFN gamma after stimulation by concanavalin A” value [2, 3] was 3.9±1.7%. For the same substance, the “% of CD8CD122+ cells” value ([2]; BiP 200 μg/mouse i.v., 11 days, pooled splenocytes and lymph node cells, n=3) was 26.3±3.7% and the “IFN production by cells cultured overnight with con A” value ([2]; cells from mice given BiP 11 days previously (FIG. 5)) was “significant reduction in IFN production”.
